Where two headings read alike, the source gives them in different places.
How the values were obtained:
[1] = system: mouse model of beta-thalassemia; conditions: cited from earlier work
[2] = biological target: T1, Human pyruvate kinase R (PKR) (Homo sapiens, UniProt P30613); assay: Biochemical assay for activation of pyruvate kinase R (Kinase-Glo luminescence, ATP generation); conditions: for Emax: read-out: PKR % activation, maximal activation level achieved with each compound relative to the activation level achieved by AG-348 @ 10 μM
T1 construct: Human pyruvate kinase R (PKR), residues 14-574; 6xHis-8xArg-SUMO (N, cleaved yes); host or cells: E. coli
T1 sequence (P30613 14-574): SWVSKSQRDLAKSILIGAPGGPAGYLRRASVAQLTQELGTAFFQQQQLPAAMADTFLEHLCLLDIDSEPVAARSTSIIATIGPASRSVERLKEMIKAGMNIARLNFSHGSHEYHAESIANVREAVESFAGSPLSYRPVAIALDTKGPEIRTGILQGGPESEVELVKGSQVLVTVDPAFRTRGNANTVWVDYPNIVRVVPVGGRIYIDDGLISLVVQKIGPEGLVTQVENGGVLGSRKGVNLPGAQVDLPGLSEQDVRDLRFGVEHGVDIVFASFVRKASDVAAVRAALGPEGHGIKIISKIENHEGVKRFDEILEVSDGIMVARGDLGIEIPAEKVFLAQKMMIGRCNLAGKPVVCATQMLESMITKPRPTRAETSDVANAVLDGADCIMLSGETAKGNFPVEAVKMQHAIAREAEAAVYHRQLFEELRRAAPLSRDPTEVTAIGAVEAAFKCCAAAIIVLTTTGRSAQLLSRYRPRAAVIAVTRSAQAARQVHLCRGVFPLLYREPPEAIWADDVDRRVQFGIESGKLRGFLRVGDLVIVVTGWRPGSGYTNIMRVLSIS
In short: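 Recombinant human PKR (residues 14-574) expressed in E. coli with His-Arg-SUMO tag, tag cleaved, purified by Ni-NTA, anion exchange and size exclusion. Activation read as ATP generation by Kinase-Glo luminescence.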

[3] = PKR AC50 (nM), 0.1 nM PKR, 0.3 mM ADP, 0.1 mM PEP, 1% DMSO

Structure (SMILES)	AC50 [2, 3]	Emax [2]	AC50 [2]	also measured
O=C(c1ccc(NS(=O)(=O)c2cccc3cccnc23)cc1)N1CCN(CC2CC2)CC1 [AG-348, Mitapivat]	–	–	–	ATP levels [1]: increased; PK activity [1]: increased; RBC parameters [1]: improved
COc1ccccc1[C@H](CO)C(=O)N1Cc2cn(S(=O)(=O)c3cnn(CC(F)F)c3C)nc2C1 [Compound 104, (2R)-1-{2-[1-(2,2-difluoroethyl)-5-methylpyrazol-4-ylsulfonyl]-4H,6H-pyrrolo[3,4-c]pyrazol-5-yl}-3-hydroxy-2-(2-methoxyphenyl)propan-1-one]	560 nM	121%	–	–
CCc1ccccc1[C@@H](CO)C(=O)N1Cc2cn(S(=O)(=O)c3cnn(CC(F)F)c3)nc2C1 [Compound 105, (S)-1-(2-((1-(2,2-difluoroethyl)-1H-pyrazol-4-yl)sulfonyl)-2,6-dihydropyrrolo[3,4-c]pyrazol-5(4H)-yl)-2-(2-ethylphenyl)-3-hydroxypropan-1-one]	74 nM	67%	–	–
CCc1ccccc1[C@H](CO)C(=O)N1Cc2cn(S(=O)(=O)c3cnn(CC(F)F)c3)nc2C1 [Compound 106, (R)-1-(2-((1-(2,2-difluoroethyl)-1H-pyrazol-4-yl)sulfonyl)-2,6-dihydropyrrolo[3,4-c]pyrazol-5(4H)-yl)-2-(2-ethylphenyl)-3-hydroxypropan-1-one]	210 nM	189%	–	–
O=C([C@H](CO)c1ccccc1Cl)N1Cc2cn(S(=O)(=O)c3ncn(CC(F)F)n3)nc2C1 [Compound 107, (2S)-2-(2-chlorophenyl)-1-{2-[1-(2,2-difluoroethyl)-1,2,4-triazol-3-ylsulfonyl]-4H,6H-pyrrolo[3,4-c]pyrazol-5-yl}-3-hydroxypropan-1-one]	53 nM	89%	–	–
O=C([C@@H](CO)c1ccccc1Cl)N1Cc2cn(S(=O)(=O)c3ncn(CC(F)F)n3)nc2C1 [Compound 108, (2R)-2-(2-chlorophenyl)-1-{2-[1-(2,2-difluoroethyl)-1,2,4-triazol-3-ylsulfonyl]-4H,6H-pyrrolo[3,4-c]pyrazol-5-yl}-3-hydroxypropan-1-one]	3300 nM	62%	–	–
CCn1ncc(S(=O)(=O)n2cc3c(n2)CN(C(=O)[C@H](CO)c2ccccc2)C3)c1C(F)(F)F [Compound 111, (2S)-1-{2-[1-ethyl-5-(trifluoromethyl)pyrazol-4-ylsulfonyl]-4H,6H-pyrrolo[3,4-c]pyrazol-5-yl}-3-hydroxy-2-phenylpropan-1-one]	1600 nM	42%	–	–
CCn1ncc(S(=O)(=O)n2cc3c(n2)CN(C(=O)[C@@H](CO)c2ccccc2)C3)c1C(F)(F)F [Compound 112, (2R)-1-{2-[1-ethyl-5-(trifluoromethyl)pyrazol-4-ylsulfonyl]-4H,6H-pyrrolo[3,4-c]pyrazol-5-yl}-3-hydroxy-2-phenylpropan-1-one]	3100 nM	174%	–	–
O=C([C@H](CO)c1ccccc1)N1Cc2cn(S(=O)(=O)c3cnn(C4CCOC4)c3)nc2C1 (stereo partly drawn) [Compound 113, (2S)-3-hydroxy-1-(2-{[1-(oxolan-3-yl)-1H-pyrazol-4-yl]sulfonyl}-2H,4H,5H,6H-pyrrolo[3,4-c]pyrazol-5-yl)-2-phenylpropan-1-one]	–	47%	24 nM	–
COC(C(=O)N1Cc2cn(S(=O)(=O)c3cnn(CC(F)F)c3)nc2C1)c1ccccc1F (stereo not shown) [Compound 114]	320 nM	134%	–	–
COC(C(=O)N1Cc2cn(S(=O)(=O)c3cnn(CC(F)F)c3)nc2C1)c1ncccc1F (stereo not shown) [Compound 115, 1-(2-{[1-(2,2-difluoroethyl)-1H-pyrazol-4-yl]sulfonyl}-2H,4H,5H,6H-pyrrolo[3,4-c]pyrazol-5-yl)-2-(3-fluoropyridin-2-yl)-2-methoxyethan-1-one]	–	96%	2100 nM	–
O=C([C@H](CO)c1ccccc1)N1Cc2cn(S(=O)(=O)c3cnn(C(F)F)c3)nc2C1 [Compound 116, (2S)-1-(2-{[1-(difluoromethyl)-1H-pyrazol-4-yl]sulfonyl}-2H,4H,5H,6H-pyrrolo[3,4-c]pyrazol-5-yl)-3-hydroxy-2-phenylpropan-1-one]	34 nM	53%	–	–
O=C([C@H](CO)c1ccccc1)N1Cc2cn(S(=O)(=O)c3csc(C(F)(F)F)c3)nc2C1 [Compound 117, (2S)-3-hydroxy-2-phenyl-1-(2-{[5-(trifluoromethyl)thiophen-3-yl]sulfonyl}-2H,4H,5H,6H-pyrrolo[3,4-c]pyrazol-5-yl)propan-1-one]	22 nM	35%	–	–
O=C([C@H](CO)c1ccccc1)N1Cc2cn(S(=O)(=O)c3c[nH]c(C(F)(F)F)c3)nc2C1 [Compound 118, (2S)-3-hydroxy-2-phenyl-1-(2-{[5-(trifluoromethyl)-1H-pyrrol-3-yl]sulfonyl}-2H,4H,5H,6H-pyrrolo[3,4-c]pyrazol-5-yl)propan-1-one]	–	13%	160 nM	–
CCOc1ncc(S(=O)(=O)n2cc3c(n2)CN(C(=O)[C@H](CO)c2ccccc2)C3)s1 [Compound 119, (2S)-1-{2-[(2-ethoxy-1,3-thiazol-5-yl)sulfonyl]-2H,4H,5H,6H-pyrrolo[3,4-c]pyrazol-5-yl}-3-hydroxy-2-phenylpropan-1-one]	–	58%	54 nM	–
COc1ccccc1[C@@H](CO)C(=O)N1Cc2cn(S(=O)(=O)c3cnn(CC(F)F)c3)nc2C1 [Compound 120, (2S)-1-{2-[1-(2,2-difluoroethyl)pyrazol-4-ylsulfonyl]-4H,6H-pyrrolo[3,4-c]pyrazol-5-yl}-3-hydroxy-2-(2-methoxyphenyl)propan-1-one]	–	102%	16 nM	–
COc1ccccc1[C@H](CO)C(=O)N1Cc2cn(S(=O)(=O)c3cnn(CC(F)F)c3)nc2C1 [Compound 121, (2R)-1-{2-[1-(2,2-difluoroethyl)pyrazol-4-ylsulfonyl]-4H,6H-pyrrolo[3,4-c]pyrazol-5-yl}-3-hydroxy-2-(2-methoxyphenyl)propan-1-one]	–	166%	98 nM	–
O=C([C@@H](CO)c1ccccc1)N1Cc2cn(S(=O)(=O)c3cnn(CC(F)F)c3)nc2C1 [Compound 122, (2R)-1-(2-{[1-(2,2-difluoroethyl)-1H-pyrazol-4-yl]sulfonyl}-2H,4H,5H,6H-pyrrolo[3,4-c]pyrazol-5-yl)-3-hydroxy-2-phenylpropan-1-one]	240 nM	120%	–	–
